Experiments:
[1] = test system: Dox-induced myocardial damage; assay: Treatment effect of rLZ-8 on Dox-induced myocardial damage in mice; format: in vivo; settings: Group H: 10 mg/kg fosinopril sodium tablets, intragastric, every two days
Procedure: Experiment grouping: there were 8 experimental groups, 10 mice/per group, saline group (Group A), model group (Group B), rLZ-8 3 μg/kg (Group C), rLZ-8 6 μg/kg(Group D), rLZ-8 12 μg/kg (Group E), rLZ-8 24 μg/kg (Group F), rLZ-8 48 μg/kg (Group G) and positive control group (Group H).
Treating process: The model making process was the same as embodiment 3. The models for groups B, C, D, E, F, G and H were made with 3 mg/kg Dox, and then as control groups, Groups A and B were given intraperitoneal injection of saline once every day, and Groups C, D, E, G and H were treated with rLZ-8, intravenous injection once every 2 days. The mice were weighed every 3 days and drugs were delivered in accordance with weights. The dose for Group C was 3 μg/kg, Group D was 6 μg/kg, Group E was 12 μg/kg, Group F was 24 μg/kg, Group G was 48 μg/kg, and as the positive control group, every two days the mice in Group H were given 10 mg/kg fosinopril sodium tablets by way of intragastric administration.
Experiment records: The deaths of the mice were recorded at 9:00 and 17:00 every day and activities of the mice were closely watched. […] The myocardial tissues were made into paraffin sections and were treated with HE staining and trichrome staining to do histological examinations.
Experimental results: In order to examine myocardial fibrosis grades of the mice and myocardial fibrosis status, in the seventh week, samples were taken according to the mortality rates. […] Sample taking: the mice were killed with the right amount of anesthetic injections and hearts of the mice were isolated under sterile conditions and rinsed with cold PBS, and then blood was blotted up filter paper. The ventricles were selected and crosscut at a 1/2 section. The myocardial tissue was put into 4% paraformaldehyde solution to be fixed, then it was paraffin sectioned and HE stained. Three slices were cut from each tissue and stained under the same conditions. The myocardial tissue of the mice was Masson stained and was photographed under 20 times 40 times microscopes and statistics were recorded.

[2] = test system: lung tissue of mice (pulmonary fibrosis model); assay: Model building of pulmonary fibrosis by BLM atomization, Szapiel grading of lung sections; format: in vivo; settings: for number of mice with Szapiel grade 0 (no alveolitis or fibrosis) / number of mice with Szapiel grade I (mild alveolitis or fibrosis) / number of mice with Szapiel grade II (medium alveolitis or fibrosis) / number of mice with Szapiel grade III (severe alveolitis or fibrosis): n=12
Procedure: 1) Modeling experiment grouping: Three groups were classified, a saline group (group A), a low BLM dose group (group B 4 mg/mL), a high BLM dose group (group C 8 mg/Ml), there were 12 mice in each group. The 12 mice in each group were divided into two groups, with 6 mice in each group and the two groups of mice were respectively put into 20×20×20 cm transparent glass containers with corresponding marks, then saline and BLM was sprayed respectively into the containers with medical ultrasonic nebulizers.
2) Model administration process: Each time the spray volume was 1 ml, then a glass cover was closed for 15 minutes and the mice were put back into cages to rest for 5 minutes, and the procedure was repeated 6 times.
The mice were killed respectively after 3 days, 7 days, 14 days and 21 days of feeding, and the lungs of the mice were taken out to see changes in appearance, color and the lung surface; after the lungs were taken out, broncho-alveolar lavage was done first, and then parts of the lung tissue were sliced into paraffin sections and histological examination was done on HE stain; RT-PCR was done on another parts of lung tissue to examine RNA level. Judged from histological analysis, RNA level, protein level and changes in amounts of inflammatory cells, a decision was made to see whether the model of pulmonary fibrosis is usable. The table below is the grading standards made by method of Szapiel to evaluate grading standard of seriousness of the pathological changes in the lung tissue.
There are 4 grades in Szapiel's pathological changes in lung tissue: “0” is grade 1; “I” is grade 2; “II” is grade 3; and “III” is grade 4. The higher the grade, the severer the degree of fibrosis is.

[3] = test system: myocardial tissue of mice (myocardial fibrosis model); assay: Establishment of Dox mice myocardial fibrosis models, histological grading;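 also: mice given Dox by injection twice weekly, hearts fixed in paraformaldehyde and scored histologically, with sampling on days 35, 42 and 49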
Procedure: 100 female Kunming mice weighed 18-22 g were picked and divided into 5 groups: saline group, model group 1 (Dox 1 mg/kg), model group 2 (Dox 2 mg/kg), model group 3 (Dox 3 mg/kg) model group 4 (Dox 4 mg/kg), the number of mice in each group were 15, 15, 25, 30 and 15. Twice a week, every mouse was injected 2000 every time, in which 1 mg/kg Dox, 2 mg/kg Dox, 3 mg/kg Dox or 4 mg/kg Dox was dissolved.
The activities of the mice were closely watched and deaths of the mice were recorded every day at 5:00 pm and 9:00 am. Three days, the 35th the 42nd and the 49th day were chosen to take samples. After deaths, hearts of the mice were taken and rinsed with cold PBS and placed on a clean dry filter paper, then they were put into paraformaldehyde solution to be fixed. The models to assess myocardial fibrosis were established according to histological analysis, the changes in ventricular cavity of the mice, perivascular fibrosis, interstitial fibrosis, and vacuole formation and other changes were taken into consideration to determine whether the model was useable.

[4] = test system: BLM-induced pulmonary fibrosis; assay: Effect of rLZ-8 on BLM-induced pulmonary fibrosis of mice, Szapiel grading; format: in vivo; settings: Group F: positive drug dexamethasone 4 mg/kg injected, n=12
Text: Experiment groups: there were 7 groups in the experiment and 12 mice in each group. The groups were a saline group (group A), a model group (group B), a low treatment dose group (group C), a medium dose group (group D), a high dose group (group E), a positive control group (group F) and an administration group one week after modeling (group G). The process of modeling was the same as the embodiment 1.
Treating process: groups B, C, D, E, F and G all adopted low BLM dose for modeling. Group A and Group B were injected with saline for serving as contrast groups; Groups C, D and E were injected with rLZ-8 each day for treatment. Mice in these groups were weighed every 3 days and drugs were administrated according to weights of the mice. The dose for Group C was 3.84375 μg/kg, the dose for Group D was 7.6875 μg/kg, the dose for Group E was 19.21875 μg/kg, Group F were injected with positive drug dexamethasone 4 mg/kg, Group G were injected with rLZ-8 for treatment 1 week after modeling and the dose was 7.6875 μg/kg.
On the 14th day and the 21st day, 6 mice were randomly picked and killed in each group. Lungs of the mice were taken out to watch the color of the lungs, if the surface was intact or not, and the changes in the lung surface; parts of the lung tissue were paraffin sectioned and HE stained to be examined histologically; other parts were done with RT-PCR to examine the RNA level. According to histological analysis, RNA level, protein level and the change in the amount of inflammatory cells, the grades of fibrosis were decided.

[5] = test system: mice (renal fibrosis model); assay: Model making of renal fibrosis of mice with cisplatin (CDDP), survival and weight; format: in vivo
Procedure: The number of mice in each group was 12, 12 and 12. They were given intraperitoneal injections for 200 μl/per time/per mouse for 5 consecutive days, and the injectionvolumes contained the appropriate doses of cisplatin (CDDP). On the 1st, the 3rd, the 5th, the 7th, the 14th and the 28th days the mice were weighed and the statistics for the survival rates in each group were recorded.

[6] = High BLM group, 8 mg/mL atomization
[7] = Low BLM group, 4 mg/mL atomization
[8] = Dox accumulated dose 30, 10 mice
[9] = Dox accumulated dose 36, 10 mice
[10] = Dox accumulated dose 42 (3 mg/kg twice a week for 7 weeks), 9 mice

CCC(=O)O[C@@H](O[P@](=O)(CCCCc1ccccc1)CC(=O)N1C[C@H](C2CCCCC2)C[C@H]1C(=O)O)C(C)C [fosinopril sodium]
Deaths [1]: 0
Number of Mice (sampled in week 7 according to mortality, 10 mice per group at start) [1]: 7
Interstitial Fibrosis grade 0, number of mice ([1]; week 7): 6
Interstitial Fibrosis grade +++, number of mice ([1]; week 7): 0
Interstitial Fibrosis grade ++, number of mice ([1]; week 7): 0
Interstitial Fibrosis grade +, number of mice ([1]; week 7): 1
Perivascular Fibrosis grade 0, number of mice ([1]; week 7): 5
Perivascular Fibrosis grade +++, number of mice ([1]; week 7): 0
Perivascular Fibrosis grade ++, number of mice ([1]; week 7): 1
Perivascular Fibrosis grade +, number of mice ([1]; week 7): 1
Vacuolization grade 0, number of mice ([1]; week 7): 6
Vacuolization grade +++, number of mice ([1]; week 7): 0
Vacuolization grade ++, number of mice ([1]; week 7): 1
Vacuolization grade +, number of mice ([1]; week 7): 0

bleomycin [BLM]
number of mice with Szapiel grade 0 (no alveolitis or fibrosis) [2, 6]: 0
number of mice with Szapiel grade I (mild alveolitis or fibrosis) [2, 6]: 1
number of mice with Szapiel grade II (medium alveolitis or fibrosis) [2, 6]: 2
number of mice with Szapiel grade III (severe alveolitis or fibrosis) [2, 6]: 9
number of mice with Szapiel grade 0 (no alveolitis or fibrosis) [2, 7]: 0
number of mice with Szapiel grade I (mild alveolitis or fibrosis) [2, 7]: 3
number of mice with Szapiel grade II (medium alveolitis or fibrosis) [2, 7]: 8
number of mice with Szapiel grade III (severe alveolitis or fibrosis) [2, 7]: 1
deaths of mice ([2]; high BLM dose group, 8 mg/mL): most of them died of respiratory failures
lung sections of the mice showing severe fibrosis ([2]; high BLM dose group, 8 mg/mL): 75%
lung sections of the mice showing medium fibrosis ([2]; low BLM dose group, 4 mg/mL): 66%

COc1cccc2c1C(=O)c1c(O)c3c(c(O)c1C2=O)C[C@@](O)(C(=O)CO)C[C@@H]3O[C@H]1C[C@H](N)[C@H](O)[C@H](C)O1 [Doxorubicin]
Interstitial Fibrosis grade 0, number of mice [3, 8]: 9
Interstitial Fibrosis grade +++, number of mice [3, 8]: 0
Interstitial Fibrosis grade ++, number of mice [3, 8]: 0
Interstitial Fibrosis grade +, number of mice [3, 8]: 1
Number of deaths [3, 8]: 0
Perivascular Fibrosis grade 0, number of mice [3, 8]: 7
Perivascular Fibrosis grade +++, number of mice [3, 8]: 0
Perivascular Fibrosis grade ++, number of mice [3, 8]: 0
Perivascular Fibrosis grade +, number of mice [3, 8]: 3
Vacuolization grade 0, number of mice [3, 8]: 10
Vacuolization grade +++, number of mice [3, 8]: 0
Vacuolization grade ++, number of mice [3, 8]: 0
Vacuolization grade +, number of mice [3, 8]: 0
Interstitial Fibrosis grade 0, number of mice [3, 9]: 10
Interstitial Fibrosis grade +++, number of mice [3, 9]: 0
Interstitial Fibrosis grade ++, number of mice [3, 9]: 0
Interstitial Fibrosis grade +, number of mice [3, 9]: 0
Number of deaths [3, 9]: 0
Perivascular Fibrosis grade 0, number of mice [3, 9]: 7
Perivascular Fibrosis grade +++, number of mice [3, 9]: 0
Perivascular Fibrosis grade ++, number of mice [3, 9]: 1
Perivascular Fibrosis grade +, number of mice [3, 9]: 2
Vacuolization grade 0, number of mice [3, 9]: 9
Vacuolization grade +++, number of mice [3, 9]: 0
Vacuolization grade ++, number of mice [3, 9]: 0
Vacuolization grade +, number of mice [3, 9]: 1
Interstitial Fibrosis grade 0, number of mice [3, 10]: 5
Interstitial Fibrosis grade +++, number of mice [3, 10]: 1
Interstitial Fibrosis grade ++, number of mice [3, 10]: 2
Interstitial Fibrosis grade +, number of mice [3, 10]: 1
Number of deaths [3, 10]: 0
Perivascular Fibrosis grade 0, number of mice [3, 10]: 4
Perivascular Fibrosis grade +++, number of mice [3, 10]: 1
Perivascular Fibrosis grade ++, number of mice [3, 10]: 2
Perivascular Fibrosis grade +, number of mice [3, 10]: 2
Vacuolization grade 0, number of mice [3, 10]: 4
Vacuolization grade +++, number of mice [3, 10]: 1
Vacuolization grade ++, number of mice [3, 10]: 2
Vacuolization grade +, number of mice [3, 10]: 2

C[C@@H]1C[C@H]2[C@@H]3CCC4=CC(=O)C=C[C@]4(C)[C@@]3(F)[C@@H](O)C[C@]2(C)[C@@]1(O)C(=O)CO [dexamethasone]
number of mice with Szapiel grade 0 (no fibrosis) [4]: 0
number of mice with Szapiel grade I (mild) [4]: 3
number of mice with Szapiel grade II (medium) [4]: 5
number of mice with Szapiel grade III (severe) [4]: 4

N.N.[Cl][Pt][Cl] [cisplatin]
survival rate ([5]; CDDP 5 mg/kg intraperitoneal, 5 consecutive days, 28th day): 90%
survival rate ([5]; CDDP 7 mg/kg intraperitoneal, 5 consecutive days, 7th day): 60%
mice survived ([5]; CDDP 7 mg/kg intraperitoneal, 5 consecutive days, 28th day): 30%
effect on weight of mice ([5]; cisplatin 5 mg/kg doses): weight loss

— patent publication US20160303189A1, “Applications of Recombined Ganoderma Lucidum Immunoregulation Protein in Preparing Drugs for Treating Tissue Fibrosis” (priority 2014, published 2016)
